{
  "source": "PubChem BioAssay AID256",
  "about": "(DTP/NCI, 2004)",
  "system": "CD2F1 mice, L1210 leukemia ip, survival T/C",
  "assay": "NCI In Vivo Anticancer Drug Screen. Data for tumor model L1210 Leukemia (intraperitoneal) in CD2F1 (CDF1) mice",
  "conditions": "higher = longer survival",
  "in_short": "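Transplantable tumor in mice; compound-treated vs vehicle-treated groups. Read-out = treated/control ratio of the measured endpoint.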",
  "key": {"[1]": {"conditions": "endpoint: mean survival time, dose: 50.0 mg/kg/injection, schedule: Q01DX001 (ip), vehicle: saline with Tween-80"}, "[2]": {"conditions": "endpoint: mean survival time, dose: 100.0 mg/kg/injection, schedule: Q01DX001 (ip), vehicle: saline with Tween-80"}, "[3]": {"conditions": "endpoint: mean survival time, dose: 100.0 mg/kg/injection, schedule: Q04DX002 (ip), vehicle: saline with Tween-80"}, "[4]": {"conditions": "endpoint: mean survival time, dose: 200.0 mg/kg/injection, schedule: Q04DX002 (ip), vehicle: saline with Tween-80"}, "[5]": {"conditions": "endpoint: mean survival time, dose: 400.0 mg/kg/injection, schedule: Q04DX002 (ip), vehicle: saline with Tween-80"}, "[6]": {"conditions": "endpoint: mean survival time, dose: 100.0 mg/kg/injection, schedule: Q04DX003 (ip), vehicle: saline with Tween-80"}, "[7]": {"conditions": "endpoint: mean survival time, dose: 200.0 mg/kg/injection, schedule: Q04DX003 (ip), vehicle: saline with Tween-80"}, "[8]": {"conditions": "endpoint: mean survival time, dose: 400.0 mg/kg/injection, schedule: Q04DX003 (ip), vehicle: saline with Tween-80"}, "[9]": {"conditions": "endpoint: mean survival time, dose: 100.0 mg/kg/injection, schedule: Q01DX009 (ip), vehicle: saline with Tween-80"}},
  "note": "Values joined by “and” are separate entries in the source; they are usually repeats but may differ in a detail not shown here. Equal values may be shown once. Inconclusive results and toxic doses are left out.",
  "data": [
    {"smiles": "O=NN(CCF)C(=O)NC1CCCCC1", "values": [
      {"measurement": "T/C", "setting": "endpoint: median survival time, dose: 2.5 mg/kg/injection, schedule: Q01DX001 (ip), vehicle: saline", "result": "101 % of control"},
      {"measurement": "T/C", "setting": "endpoint: median survival time, dose: 2.5 mg/kg/injection, schedule: Q04DX002 (ip), vehicle: saline", "result": "93 % of control"},
      {"measurement": "T/C", "setting": "endpoint: median survival time, dose: 5.0 mg/kg/injection, schedule: Q01DX001 (ip), vehicle: saline", "result": "101 % of control"},
      {"measurement": "T/C", "setting": "endpoint: median survival time, dose: 5.0 mg/kg/injection, schedule: Q04DX002 (ip), vehicle: saline", "result": "106 % of control"},
      {"measurement": "T/C", "setting": "endpoint: median survival time, dose: 10.0 mg/kg/injection, schedule: Q01DX001 (ip), vehicle: saline", "result": "102 % of control"},
      {"measurement": "T/C", "setting": "endpoint: median survival time, dose: 10.0 mg/kg/injection, schedule: Q04DX002 (ip), vehicle: saline", "result": "120 % of control and 223 % of control"},
      {"measurement": "T/C", "setting": "endpoint: median survival time, dose: 20.0 mg/kg/injection, schedule: Q01DX001 (ip), vehicle: saline", "result": "103 % of control"},
      {"measurement": "T/C", "setting": "endpoint: median survival time, dose: 20.0 mg/kg/injection, schedule: Q04DX002 (ip), vehicle: saline", "result": "365 % of control"},
      {"measurement": "T/C", "setting": "endpoint: median survival time, dose: 40.0 mg/kg/injection, schedule: Q01DX001 (ip), vehicle: saline", "result": "120 % of control"},
      {"measurement": "T/C", "setting": "endpoint: median survival time, dose: 40.0 mg/kg/injection, schedule: Q04DX002 (ip), vehicle: saline", "result": "216 % of control and 365 % of control"},
      {"measurement": "T/C", "setting": "endpoint: median survival time, dose: 80.0 mg/kg/injection, schedule: Q01DX001 (ip), vehicle: saline", "result": "168 % of control"},
      {"measurement": "T/C", "setting": "endpoint: median survival time, dose: 80.0 mg/kg/injection, schedule: Q04DX002 (ip), vehicle: saline", "result": "207 % of control and 361 % of control"}
    ]},
    {"smiles": "F/C(=C\\c1ccccc1)c1ccccc1", "values": [
      {"measurement": "T/C", "setting": "[1]", "result": "110 % of control"},
      {"measurement": "T/C", "setting": "[2]", "result": "108 % of control"},
      {"measurement": "T/C", "setting": "endpoint: mean survival time, dose: 200.0 mg/kg/injection, schedule: Q01DX001 (ip), vehicle: saline with Tween-80", "result": "101 % of control"}
    ]},
    {"smiles": "O=C(c1ccccc1)C1CC2CCC1CC2", "note": "(configuration not stated)", "values": [
      {"measurement": "T/C", "setting": "endpoint: mean survival time, dose: 50.0 mg/kg/injection, schedule: Q04DX002 (ip), vehicle: saline with Tween-80", "result": "96 % of control"},
      {"measurement": "T/C", "setting": "[3]", "result": "86 % of control"},
      {"measurement": "T/C", "setting": "[4]", "result": "93 % of control"},
      {"measurement": "T/C", "setting": "[5]", "result": "89 % of control"}
    ]},
    {"smiles": "CNC(=O)Nc1nc2ccc([N+](=O)[O-])cc2[nH]1", "values": [
      {"measurement": "T/C", "setting": "[6]", "result": "109 % of control"},
      {"measurement": "T/C", "setting": "[7]", "result": "105 % of control"},
      {"measurement": "T/C", "setting": "[8]", "result": "105 % of control"}
    ]},
    {"smiles": "O=C1NCC(c2ccccc2)(C2CC2)O1", "note": "(configuration not stated)", "values": [
      {"measurement": "T/C", "setting": "[3]", "result": "100 % of control"},
      {"measurement": "T/C", "setting": "[4]", "result": "100 % of control"},
      {"measurement": "T/C", "setting": "[5]", "result": "100 % of control"}
    ]},
    {"smiles": "Cc1ccc2nc(-c3ccc4nc(-c5ccc(N)cc5)sc4c3)sc2c1S(=O)(=O)O", "values": [
      {"measurement": "T/C", "setting": "endpoint: mean survival time, dose: 100.0 mg/kg/injection, schedule: Q04DX003 (ip), vehicle: saline", "result": "109 % of control"},
      {"measurement": "T/C", "setting": "endpoint: mean survival time, dose: 200.0 mg/kg/injection, schedule: Q04DX003 (ip), vehicle: saline", "result": "107 % of control"},
      {"measurement": "T/C", "setting": "endpoint: mean survival time, dose: 400.0 mg/kg/injection, schedule: Q04DX003 (ip), vehicle: saline", "result": "112 % of control"}
    ]},
    {"smiles": "Nc1nc2c(ncn2-c2ccccc2F)c(=O)[nH]1", "values": [
      {"measurement": "T/C", "setting": "endpoint: mean survival time, dose: 25.0 mg/kg/injection, schedule: Q01DX001 (ip), vehicle: saline with Tween-80", "result": "102 % of control"},
      {"measurement": "T/C", "setting": "[1]", "result": "106 % of control"},
      {"measurement": "T/C", "setting": "[2]", "result": "94 % of control and 98 % of control"}
    ]},
    {"smiles": "CCC(=O)Oc1[nH]c(C)c(C(C)=O)c1C", "values": [
      {"measurement": "T/C", "setting": "[9]", "result": "100 % of control"},
      {"measurement": "T/C", "setting": "[6]", "result": "102 % of control"},
      {"measurement": "T/C", "setting": "endpoint: mean survival time, dose: 200.0 mg/kg/injection, schedule: Q01DX009 (ip), vehicle: saline with Tween-80", "result": "97 % of control"},
      {"measurement": "T/C", "setting": "[7]", "result": "97 % of control"},
      {"measurement": "T/C", "setting": "endpoint: mean survival time, dose: 400.0 mg/kg/injection, schedule: Q01DX009 (ip), vehicle: saline with Tween-80", "result": "100 % of control"},
      {"measurement": "T/C", "setting": "[8]", "result": "94 % of control"}
    ]},
    {"smiles": "O=c1c2cc[nH]c2ncn1C1OC(CO)C(O)C1O", "note": "(configuration not stated)", "values": [
      {"measurement": "T/C", "setting": "endpoint: mean survival time, dose: 12.5 mg/kg/injection, schedule: Q01DX005 (ip), vehicle: saline", "result": "96 % of control"},
      {"measurement": "T/C", "setting": "endpoint: mean survival time, dose: 25.0 mg/kg/injection, schedule: Q01DX005 (ip), vehicle: saline", "result": "107 % of control"}
    ]},
    {"smiles": "O=C(O)CCC(=O)c1ccc(Cl)c(Cl)c1", "values": [
      {"measurement": "T/C", "setting": "endpoint: mean survival time, dose: 50.0 mg/kg/injection, schedule: Q01DX009 (ip), vehicle: saline with Tween-80", "result": "102 % of control"},
      {"measurement": "T/C", "setting": "[9]", "result": "96 % of control"},
      {"measurement": "T/C", "setting": "[6]", "result": "98 % of control"},
      {"measurement": "T/C", "setting": "[7]", "result": "91 % of control"}
    ]},
    {"smiles": "Cn1c(N)nc2nc[nH]c2c1=S", "values": [
      {"measurement": "T/C", "setting": "endpoint: mean survival time, dose: 16.0 mg/kg/injection, schedule: Q01DX008 (iv), vehicle: saline", "result": "100 % of control"},
      {"measurement": "T/C", "setting": "endpoint: mean survival time, dose: 32.0 mg/kg/injection, schedule: Q01DX008 (iv), vehicle: saline", "result": "98 % of control"},
      {"measurement": "T/C", "setting": "endpoint: mean survival time, dose: 64.0 mg/kg/injection, schedule: Q01DX008 (iv), vehicle: saline", "result": "105 % of control"}
    ]},
    {"smiles": "CC(C)([NH-])C[NH-].O=C(O)CCO.[Pt+2]", "values": [
      {"measurement": "T/C", "setting": "endpoint: median survival time, dose: 20.0 mg/kg/injection, schedule: Q04DX003 (ip), vehicle: saline", "result": "255 % of control"},
      {"measurement": "T/C", "setting": "endpoint: median survival time, dose: 20.0 mg/kg/injection, schedule: Q04DX003 (ip), vehicle: water", "result": "173 % of control"},
      {"measurement": "T/C", "setting": "endpoint: median survival time, dose: 40.0 mg/kg/injection, schedule: Q04DX003 (ip), vehicle: saline", "result": "232 % of control"},
      {"measurement": "T/C", "setting": "endpoint: median survival time, dose: 40.0 mg/kg/injection, schedule: Q04DX003 (ip), vehicle: water", "result": "170 % of control"},
      {"measurement": "T/C", "setting": "endpoint: median survival time, dose: 80.0 mg/kg/injection, schedule: Q04DX003 (ip), vehicle: saline", "result": "116 % of control"},
      {"measurement": "T/C", "setting": "endpoint: median survival time, dose: 80.0 mg/kg/injection, schedule: Q04DX003 (ip), vehicle: water", "result": "90 % of control"}
    ]}
  ]
}
